In patent publication US20120015907A1, “Furopyridine compounds and uses thereof” (NOVARTIS AG, priority 2010, published 2012):

target: T1, HCV polymerase (Hepatitis C virus genotype 1b, UniProt Q9WMX2); assay: biochemical; details: NS5B polymerase IC50 μM, polymerase assay of Biological Example 1
T1 construct: (His)6 (C)

`CCOP(C)(=O)CCCCN(c1nc2oc(-c3ccc(C)cc3)c(C(=O)NC)c2cc1I)S(C)(=O)=O` (stereo not drawn) [Example 23.9995, ethyl 4-(N-(5-iodo-3-(methylcarbamoyl)-2-p-tolylfuro[2,3-b]pyridin-6-yl)methylsulfonamido)butyl (methyl)phosphinate] gave an IC50 of 0.017 µM.

same assay, conditions: polymerase assay of Biological Example 1; read-out: NS5B polymerase IC50

Going from `C=CCc1cc2c(C(=O)NC)c(-c3ccc(F)cc3)oc2nc1N(C)S(C)(=O)=O` [Example 4.2, 5-allyl-2-(4-fluorophenyl)-N-methyl-6-(N-methylmethylsulfonamido)furo[2,3-b]pyridine-3-carboxamide] to `C=C1OCCN(S(C)(=O)=O)c2nc3oc(-c4ccc(F)cc4)c(C(=O)NC)c3cc21` [Example 36.1, 2-(4-Fluoro-phenyl)-9-methanesulfonyl-5-methylene-5,7,8,9-tetrahydro-1,6-dioxa-9,10-diaza-cyclohepta[f]indene-3-carboxylic acid methylamide], the IC50 falls from 0.128 µM to 0.046 µM (2.8-fold). The second is the more potent here.

Going from `CNC(=O)c1c(-c2ccc(C)cc2)oc2nc(N(CCCCC(C(=O)O)S(C)(=O)=O)S(C)(=O)=O)c(C3CC3)cc12` (stereo not drawn) [Example 46, 6-(N-(5-cyclopropyl-3-(methylcarbamoyl)-2-(p-tolyl)furo[2,3-b]pyridin-6-yl)methylsulfonamido)-2-(methylsulfonyl)hexanoic acid] to `CCc1cc2c(C(=O)NC)c(-c3ccc(F)cc3)oc2nc1N(CCCCC(C)(C)O)S(C)(=O)=O` [Example 22.97, 5-ethyl-2-(4-fluorophenyl)-6-(N-(5-hydroxy-5-methylhexyl)methylsulfonamido)-N-methylfuro[2,3-b]pyridine-3-carboxamide], the IC50 rises from 0.003 µM to 0.046 µM (15-fold). The first is the more potent here.

First: CNC(=O)c1c(-c2ccc(C)cc2)oc2nc(N(CCCC(CC(=O)O)OC)S(C)(=O)=O)c(C3CC3)cc12 (stereo not drawn) [Example 29.999994, 6-(N-(5-cyclopropyl-3-(methylcarbamoyl)-2-p-tolylfuro[2,3-b]pyridin-6-yl)methylsulfonamido)-3-methoxyhexanoic acid]
Second: CNC(=O)c1c(-c2ccc(F)cc2)oc2nc(N(C)S(C)(=O)=O)c(C(C)=O)cc12 [Example 10, 5-acetyl-2-(4-fluorophenyl)-N-methyl-6-(N-methylmethylsulfonamido)furo[2,3-b]pyridine-3-carboxamide]
The IC50 of the first is 160-fold lower: 0.003 µM for the first, 0.467 µM for the second.

Going from “6-{[3-(1,1-Dioxo-tetrahydro-1lambdathiophen-2-yl)-propyl]-methanesulfonyl-amino}-5-ethyl-2-(4-fluoro-phenyl)-furo[2,3-b]pyridine-3-carboxylic acid methylamide [Example 22.99]” to `CNC(=O)c1c(-c2ccc(C)cc2)oc2nc(N(CCCC3(C(=O)O)CCC3)S(C)(=O)=O)c(C3CC3)cc12` [Example 29.1, 1-{3-[(5-Cyclopropyl-3-methylcarbamoyl-2-p-tolyl-furo[2,3-b]pyridin-6-yl)-methanesulfonyl-amino]-propyl}-cyclobutanecarboxylic acid], the IC50 falls from 0.015 µM to 0.002 µM (7.5-fold). The second is the more potent here.

Going from `CNC(=O)c1c(-c2ccc(C)c(C)c2)oc2nc(N(CCCCC(=O)O)S(C)(=O)=O)c(C3CC3)cc12` [Example 29.999998, 5-(N-(5-cyclopropyl-2-(3,4-dimethylphenyl)-3-(methylcarbamoyl)furo[2,3-b]pyridin-6-yl)methylsulfonamido) pentanoic acid] to `CNC(=O)c1c(-c2ccc(C(F)(F)F)cc2)oc2nc(N(C)S(C)(=O)=O)c(I)cc12` [Example 2.91, 5-iodo-N-methyl-6-(N-methylmethylsulfonamide)-2-(4-(trifluoromethyl)phenyl)furo[2,3-b]pyridine-3-carboxamide], the IC50 rises from 0.004 µM to 0.802 µM (200-fold). The first is the more potent here.

`CNC(=O)c1c(-c2ccc(C)cc2)oc2nc(N(CC(O)CCC(=O)O)S(C)(=O)=O)c(C3CC3)cc12` (stereo not drawn) [Example 29.995, 5-(N-(5-cyclopropyl-3-(methylcarbamoyl)-2-p-tolylfuro[2,3-b]pyridin-6-yl)methylsulfonamido)-4-hydroxypentanoic acid] showed an IC50 of 0.013 µM.
